This assay has as its target T1, human CB2 (Homo sapiens, UniProt P34972).
T1 construct: expressed in transfected cells; host or cells: HEK-293T (transient transfection, membrane preparation)
In words: CB2 receptor binding assay, block of [3H]-CP 55,940 binding. The conditions noted are these: membranes of HEK-293T cells transfected with human CB2 cDNA; 1.5 nM [3H]-CP 55,940. The method, then: Membrane preparation—HEK-293T cells were cultured according to ATCC (Manassas, Va.) guidelines and transfected with human CB2 cDNA (SEQ ID NO:1) (Genbank X74328), operably linked to the SV40 promoter, using Polyfect (Qiagen, Valencia, Calif.) or Fugene (Roche, Nutley, N.J.) according to manufacturer's instructions. 48 h after transfection cells were harvested in ice cold membrane buffer (20 mM HEPES, 6 mM MgCl2, 1 mM EDTA, pH 7.2) using a cell scraper. Cells were transferred to a nitrogen cavitation chamber and a pressure of […] was applied for 30 min. The pressure was released and the cell debris was collected and centrifuged at 1000 g at 4° C. for 10 min. The supernatant was collected and the spin was repeated until the supernatant was free of precipitate. Membranes were then pelleted by centrifugation at 12.000 g at 4° C. for 20 min. Membranes were resuspended in an appropriate amount of membrane buffer. The membrane concentration was determined using a BioRad (Hercules, Calif.) protein assay dye reagent according to manufacturer's instructions. Membranes were diluted to 1 mg/ml and aliquots snap-frozen in liquid nitrogen and store at −80° C.
Binding assay—0.5-10 ng of membranes were incubated in binding buffer (50 mM Tris, 0.5 mM EDTA, 0.1% BSA, pH 7.4) in the presence of 1.5 nM radioligand ([^3H]-CP 55,940 Perkin Elmer) and varying concentrations of ligands (total volume 100 μL in a 96 well plate). Membranes were filtered onto a 96 well GF/B filterplate (Packard Bioscience, Shelton, Conn.) and washed with […] wash buffer (25 mM HEPES, 1 mM CaCl2, 5 mM MgCl2, 0.25M NaCl) using a Filtermate 196 Harvester (Packard Instruments, Downers Grove, Ill.). The filter plates were dried under a heat lamp before addition of 50 μL of scintillation fluid to each well (Microscint 20, Packard, Shelton, Conn.). Plates were counted on a Topcount NXT (Packard, Shelton, Conn.).
Data Analysis—Graphs were plotted and KD values were determined by nonlinear regression analysis using Prism software (GraphPad version 4.0, San Diego, Calif., USA).

T1 sequence (P34972 whole entry): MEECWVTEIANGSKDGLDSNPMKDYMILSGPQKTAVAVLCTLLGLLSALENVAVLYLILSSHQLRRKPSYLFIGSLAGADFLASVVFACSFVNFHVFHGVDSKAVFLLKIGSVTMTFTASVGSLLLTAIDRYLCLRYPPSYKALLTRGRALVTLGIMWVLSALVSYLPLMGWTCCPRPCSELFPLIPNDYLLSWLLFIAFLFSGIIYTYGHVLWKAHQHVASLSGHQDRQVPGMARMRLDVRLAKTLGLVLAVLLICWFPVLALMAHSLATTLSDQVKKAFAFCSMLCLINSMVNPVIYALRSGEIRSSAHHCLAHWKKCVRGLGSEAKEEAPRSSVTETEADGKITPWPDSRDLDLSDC

`COc1cccc2nc(-c3c(C)cncc3C)c(Nc3ccc4c(c3)OCCO4)n12` [CR-139] displayed a pKi of 8.2.

For the origin of these results see US20110206607A1, “IMIDAZOL (1,2-A)PYRIDINES AND RELATED COMPOUNDS WITH ACTIVITY AT CANNABINOID CB2 RECEPTORS” (priority 2007, published 2011).
